Where two headings read alike, the source gives them in different places. Some results are limits rather than exact numbers.

In assay [1] the target is T1, PRMT5 (Homo sapiens, UniProt O14744).
T1 construct: purchased Viva (custom protein)
The assay can be described thus: PRMT5 biochemical IC50 assay with SAM as cofactor. The note with it: PRMT5, SAM as cofactor; read-out: SAM IC50.

For assay [2], the target named is T1, PRMT5. The assay can be described thus: PRMT5 biochemical IC50 assay with no cofactor. The note with it: PRMT5, no cofactor; read-out: No Cofactor/rel IC50. The text has this:
Table 1 indicates IC50 values (μM) against PRMT5 for exemplary compounds in the presence of SAM as cofactor, with no cofactor, and with MTA as cofactor, respectively (columns 4-6). […] Ki values can be calculated from the IC50 values as described in the Examples section. As detailed in the Examples section, for the assay performed in the presence of SAM, IC50=Ki×1.5 (Ki=IC50/1.5).

Assay [3] addresses T1, PRMT5. In words: PRMT5 biochemical IC50 assay with MTA as cofactor. The note with it: PRMT5, MTA as cofactor; read-out: MTA IC50.
In assay [4] the test system is HAP1 MTAP-intact cell line. The assay can be described thus: SDMA in-cell western assay, HAP1 MTAP-intact. The assay is classed as cell-based. The conditions noted are these: Homo sapiens. Put shortly:
(§1)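 Compounds were tested in HAP1 cells differing only in MTAP status (endogenous expression versus null). Cellular SDMA levels were then measured by in-cell western, giving an IC50 in each background.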

The subject of assay [5] is HAP1 MTAP-deleted cell line. In words: SDMA in-cell western assay, HAP1 MTAP-deleted. Format: cell-based. The conditions noted are these: for IC50: Homo sapiens; for MTAP intact/deleted ratio: IC50 ratio HAP1 MTAP-intact vs HAP1 MTAP-deleted, SDMA in-cell western. The method in brief:
as §1

For assay [6], the system named is HAP1 MTAP-deleted cell line. In words: Viability assay, MTAP-deleted cell line. The assay is classed as cell-based. The note with it: Homo sapiens. The text has this: Table 1 additionally indicates IC50 values in a viability assay for the MTAP-deleted cell line (column 10), indicating the effect of treatment with compound on cell survival.
The mark [7] stands for this setting: HAP1, SDMA in-cell western, HAP1 MTAP-intact, read-out: MTAP HAP1 intact IC50.
Setting [8] is: HAP1, SDMA in-cell western, HAP1 MTAP-deleted, read-out: HAP1 MTAP deleted IC50.
[9] abbreviates: HAP1, viability assay, MTAP-deleted cell line, read-out: HAP1 MTAP deleted viability.

T1 sequence (O14744 whole entry): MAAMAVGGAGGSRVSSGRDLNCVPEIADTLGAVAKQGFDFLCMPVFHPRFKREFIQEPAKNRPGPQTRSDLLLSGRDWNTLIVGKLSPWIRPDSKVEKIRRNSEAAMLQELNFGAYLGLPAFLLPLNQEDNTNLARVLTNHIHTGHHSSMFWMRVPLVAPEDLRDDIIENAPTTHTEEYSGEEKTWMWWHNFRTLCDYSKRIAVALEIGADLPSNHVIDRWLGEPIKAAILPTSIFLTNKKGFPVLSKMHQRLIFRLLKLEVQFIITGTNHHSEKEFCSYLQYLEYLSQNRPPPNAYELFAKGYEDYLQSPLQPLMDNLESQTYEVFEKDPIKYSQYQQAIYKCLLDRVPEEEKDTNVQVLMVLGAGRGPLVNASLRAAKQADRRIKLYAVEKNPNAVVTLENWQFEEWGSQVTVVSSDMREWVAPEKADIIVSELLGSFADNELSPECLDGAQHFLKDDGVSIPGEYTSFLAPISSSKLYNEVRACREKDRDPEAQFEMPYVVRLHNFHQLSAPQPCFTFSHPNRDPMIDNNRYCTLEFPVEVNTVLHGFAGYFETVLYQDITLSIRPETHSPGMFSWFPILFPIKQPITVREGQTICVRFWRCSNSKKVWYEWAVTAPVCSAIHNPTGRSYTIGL
T1 sequence (Q9BQA1 whole entry partner): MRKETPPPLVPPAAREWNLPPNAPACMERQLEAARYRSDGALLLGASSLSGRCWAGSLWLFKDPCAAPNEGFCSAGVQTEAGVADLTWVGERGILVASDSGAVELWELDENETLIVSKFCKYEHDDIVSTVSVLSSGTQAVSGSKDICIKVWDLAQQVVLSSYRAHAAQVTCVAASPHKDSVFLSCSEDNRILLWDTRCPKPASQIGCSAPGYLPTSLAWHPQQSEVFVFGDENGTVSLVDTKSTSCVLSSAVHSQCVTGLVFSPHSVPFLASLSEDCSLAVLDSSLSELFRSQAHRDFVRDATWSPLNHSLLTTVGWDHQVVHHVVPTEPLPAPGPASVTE

As to `CCc1cc(NC(=O)C(=O)N2C[C@H](C)CC[C@H]2c2ccc3sc(CCN(C)C)nc3c2)cnc1N` (single isomer, unassigned) [Compound 1133], the IC50 in assay [1] was more than 500 nM; in assay [2], more than 500 nM; in assay [3], more than 500 nM; in assay [4] (setting [7]), more than 1000 nM; in assay [5] (setting [8]), more than 1000 nM; in assay [6] (setting [9]) it was 1000 to 10000 nM.
Regarding `Cc1cc(NC(=O)C(=O)N2C[C@@H](C)CC[C@@H]2c2ccc3sc([C@H]4CCN(C)C(C)(C)C4)nc3c2)cnc1C` (single isomer, unassigned) [Compound 1135], the IC50 in assay [1] was less than 50 nM; in assay [2], less than 50 nM; in assay [3], less than 50 nM; in assay [4] (setting [7]), 100 to 1000 nM; in assay [5] (setting [8]) it was less than 100 nM; in assay [6] (setting [9]), less than 1000 nM. Also, the MTAP intact/deleted ratio result in assay [5] is “A (an IC50 ratio greater than or equal to 10 fold)”.
On to `CCc1cc(NC(=O)C(=O)N2C[C@@H](C)CC[C@@H]2c2ccc3sc([C@H]4CCN(C)C(=O)C4)nc3c2)cnc1N` (single isomer, unassigned) [Compound 1136], for which the IC50 is 50 to 500 nM in assay [1]; less than 50 nM in assay [2]; less than 50 nM in assay [3]; 100 to 1000 nM in assay [4] (setting [7]); less than 100 nM in assay [5] (setting [8]); less than 1000 nM in assay [6] (setting [9]). Moreover, the MTAP intact/deleted ratio entry in assay [5] is reported as “A (an IC50 ratio greater than or equal to 10 fold)”.
On to `CCc1cc(NC(=O)C(=O)N2C[C@H](C)[C@H](OC)C[C@H]2c2ccc3scnc3c2)cnc1N` (single isomer, unassigned) [Compound 1138], for which the IC50 in assay [1] was more than 500 nM; in assay [2], more than 500 nM; in assay [3] it was more than 500 nM; in assay [4] (setting [7]), more than 1000 nM; in assay [5] (setting [8]), 100 to 1000 nM; in assay [6] (setting [9]), 1000 to 10000 nM.
Regarding `CCc1cc(NC(=O)C(=O)N2C[C@@H](C)CC[C@@H]2c2ccc(N3CC[C@@H]4CCN(C)C[C@@H]4C3)cc2)cnc1N` (single isomer, unassigned) [Compound 1144], the IC50 was 50 to 500 nM in assay [1]; less than 50 nM in assay [2]; less than 50 nM in assay [3]; 100 to 1000 nM in assay [4] (setting [7]); less than 100 nM in assay [5] (setting [8]); less than 1000 nM in assay [6] (setting [9]). Besides, in assay [5], the MTAP intact/deleted ratio entry was “A (an IC50 ratio greater than or equal to 10 fold)”.
Turning to `COc1ncc(NC(=O)C(=O)N2C[C@@H](C)CC[C@@H]2c2ccc3sc(CCN(C)C)nc3c2)cc1C(N)=O` (single isomer, unassigned) [Compound 1146], the IC50 in assay [1] is less than 50 nM; in assay [2] it was less than 50 nM; in assay [3], less than 50 nM; in assay [4] (setting [7]) it was less than 100 nM; in assay [5] (setting [8]), less than 100 nM; in assay [6] (setting [9]), less than 1000 nM. Further, the MTAP intact/deleted ratio result in assay [5] is on record as “A (an IC50 ratio greater than or equal to 10 fold)”.
In the case of `CCc1cc(NC(=O)C(=O)N2C[C@H](C)CC[C@H]2c2ccc(N3CCOC4(CN(C)C4)C3)cc2)cnc1N` (single isomer, unassigned) [Compound 1150], the IC50 in assay [1] is more than 500 nM; in assay [2], more than 500 nM; in assay [3] it was more than 500 nM; in assay [4] (setting [7]), more than 1000 nM; in assay [5] (setting [8]), more than 1000 nM; in assay [6] (setting [9]) it was more than 10000 nM.
Take `C[C@H]1CC[C@H](c2ccc3sncc3c2)N(C(=O)C(=O)Nc2cnc(N)c(C3CC3)c2)C1` (single isomer, unassigned) [Compound 1153]: the IC50 in assay [1] was 50 to 500 nM; in assay [2], less than 50 nM; in assay [3] it was less than 50 nM; in assay [4] (HAP1, read-out: MTAP HAP1 intact IC50), 100 to 1000 nM; in assay [5] (HAP1, read-out: HAP1 MTAP deleted IC50) it was less than 100 nM; in assay [6] (HAP1, read-out: HAP1 MTAP deleted viability), less than 1000 nM. The MTAP intact/deleted ratio result in assay [5] was “A (an IC50 ratio greater than or equal to 10 fold)”.
With `C[C@H]1CC[C@H](c2ccc3sc(C4CCN(C)CC4)nc3c2)N(C(=O)C(=O)Nc2cnc(N)c([C@@H]3CCOC3)c2)C1` (single isomer, unassigned) [Compound 1154], the IC50 is less than 50 nM in assay [1]; less than 50 nM in assay [2]; less than 50 nM in assay [3]; less than 100 nM in assay [4] (setting [7]); less than 100 nM in assay [5] (setting [8]); less than 1000 nM in assay [6] (setting [9]). In addition, in assay [5], the MTAP intact/deleted ratio entry is “A (an IC50 ratio greater than or equal to 10 fold)”.
For `C[C@@H]1CC[C@@H](c2ccc3nn(CCN(C)C)cc3c2)N(C(=O)C(=O)Nc2cnc(N)c(C3CC3)c2)C1` (single isomer, unassigned) [Compound 1156], the IC50 in assay [1] was less than 50 nM; in assay [2], less than 50 nM; in assay [3], less than 50 nM; in assay [4] (setting [7]), less than 100 nM; in assay [5] (setting [8]), less than 100 nM; in assay [6] (setting [9]) it was less than 1000 nM. Besides, the MTAP intact/deleted ratio result in assay [5] is “A (an IC50 ratio greater than or equal to 10 fold)”.
For `Cc1cc(NC(=O)C(=O)N2C[C@@H](C)[C@@H](CC(C)C)C[C@@H]2c2ccc3scnc3c2)cnc1N` (single isomer, unassigned) [Compound 1157], the IC50 in assay [1] is more than 500 nM; in assay [2], more than 500 nM; in assay [3], more than 500 nM; in assay [4] (setting [7]), more than 1000 nM; in assay [5] (setting [8]), more than 1000 nM; in assay [6] (setting [9]), more than 10000 nM.
Consider `CO[C@@H]1C[C@@H](c2ccc3scnc3c2)N(C(=O)C(=O)Nc2cncc(C(N)=O)c2)C[C@@H]1C` (single isomer, unassigned) [Compound 1161], for which the IC50 in assay [1] was 50 to 500 nM; in assay [2] it was less than 50 nM; in assay [3] it was less than 50 nM; in assay [4] (setting [7]) it was 100 to 1000 nM; in assay [5] (setting [8]), less than 100 nM; in assay [6] (setting [9]) it was less than 1000 nM. In addition, the MTAP intact/deleted ratio result in assay [5] is listed as “A (an IC50 ratio greater than or equal to 10 fold)”.
With `Cc1cc(NC(=O)C(=O)N2C[C@@H](C)CC[C@@H]2c2ccc3snc(C)c3c2)cnc1N` (single isomer, unassigned) [Compound 1166], the IC50 in assay [1] is 50 to 500 nM; in assay [2], less than 50 nM; in assay [3], less than 50 nM; in assay [4] (setting [7]) it was less than 100 nM; in assay [5] (setting [8]), less than 100 nM; in assay [6] (setting [9]) it was less than 1000 nM. Further, in assay [5], the MTAP intact/deleted ratio entry was “B (an IC50 ratio greater than or equal to 3 fold but lower than 10 fold)”.
For `Cc1nc2cc([C@@H]3CC[C@H](C)CN3C(=O)C(=O)Nc3cnc(N)c(C)c3)ccc2o1` (single isomer, unassigned) [Compound 1170], the IC50 in assay [1] was 50 to 500 nM; in assay [2], less than 50 nM; in assay [3], less than 50 nM; in assay [4] (setting [7]) it was 100 to 1000 nM; in assay [5] (setting [8]) it was less than 100 nM; in assay [6] (setting [9]), less than 1000 nM. Moreover, the MTAP intact/deleted ratio result in assay [5] is recorded as “A (an IC50 ratio greater than or equal to 10 fold)”.
On to `CCc1cc(NC(=O)C(=O)N2[C@@H](C)CCC[C@H]2c2ccc3sc(C4CCN(C)CC4)nc3c2)cnc1N` (single isomer, unassigned) [Compound 1173], for which the IC50 in assay [1] was 50 to 500 nM; in assay [2] it was less than 50 nM; in assay [3], less than 50 nM; in assay [4] (setting [7]), less than 100 nM; in assay [5] (setting [8]) it was less than 100 nM; in assay [6] (setting [9]) it was less than 1000 nM. The MTAP intact/deleted ratio result in assay [5] is given as “A (an IC50 ratio greater than or equal to 10 fold)”.
As for `COCCc1nc2cc([C@H]3CC[C@H](C)CN3C(=O)C(=O)Nc3cnc(N)c(C4CC4)c3)ccc2s1` (single isomer, unassigned) [Compound 1176], the IC50 in assay [1] was more than 500 nM; in assay [2], more than 500 nM; in assay [3], more than 500 nM; in assay [4] (setting [7]) it was more than 1000 nM; in assay [5] (setting [8]), more than 1000 nM; in assay [6] (setting [9]), more than 10000 nM.
For the molecule `Cc1cc(NC(=O)C(=O)N2C[C@H](C)CC[C@H]2c2ccc3c(cnn3CCN(C)C)c2)cnc1N` (single isomer, unassigned) [Compound 1182], the IC50 is less than 50 nM in assay [1]; less than 50 nM in assay [2]; less than 50 nM in assay [3]; less than 100 nM in assay [4] (setting [7]); less than 100 nM in assay [5] (setting [8]); less than 1000 nM in assay [6] (setting [9]). In addition, the MTAP intact/deleted ratio result in assay [5] is listed as “B (an IC50 ratio greater than or equal to 3 fold but lower than 10 fold)”.
With `CCc1cc(NC(=O)C(=O)N2C[C@@H](C)CC[C@@H]2c2ccc3sc([C@H](C)N(C)C)nc3c2)cnc1N` (single isomer, unassigned) [Compound 1188], the IC50 is 50 to 500 nM in assay [1]; less than 50 nM in assay [2]; less than 50 nM in assay [3]; less than 100 nM in assay [4] (setting [7]); less than 100 nM in assay [5] (setting [8]); less than 1000 nM in assay [6] (setting [9]). In addition, in assay [5], the MTAP intact/deleted ratio result was “A (an IC50 ratio greater than or equal to 10 fold)”.

Values taken from patent US11999727B2 (Tango Therapeutics, Inc., priority 2020, dated 2024).
